# Laboratory results reported in ChEMBL document CHEMBL5331070, “Design, synthesis and evaluation of N3-substituted quinazolinone derivatives as potential Bloom's Syndrome protein (BLM) helicase inhibitor for sensitization treatment of colorectal cancer” (Eur J Med Chem, 2023).
# Activity calls are given as the source filed them. The calls are words filed in the database; no cut-off is given here.
# Columns and labels:
# [1] = target: T1, RecQ-like DNA helicase BLM (Homo sapiens, UniProt P54132); assay: Inhibition of BLM (unknown origin) assessed as ATP hydrolysis using 5'-biotin-labeled duplex forked-DNA as substrate incubated for 10 mins in presence of ATP by luciferase assay
# T1 sequence (P54132 whole entry): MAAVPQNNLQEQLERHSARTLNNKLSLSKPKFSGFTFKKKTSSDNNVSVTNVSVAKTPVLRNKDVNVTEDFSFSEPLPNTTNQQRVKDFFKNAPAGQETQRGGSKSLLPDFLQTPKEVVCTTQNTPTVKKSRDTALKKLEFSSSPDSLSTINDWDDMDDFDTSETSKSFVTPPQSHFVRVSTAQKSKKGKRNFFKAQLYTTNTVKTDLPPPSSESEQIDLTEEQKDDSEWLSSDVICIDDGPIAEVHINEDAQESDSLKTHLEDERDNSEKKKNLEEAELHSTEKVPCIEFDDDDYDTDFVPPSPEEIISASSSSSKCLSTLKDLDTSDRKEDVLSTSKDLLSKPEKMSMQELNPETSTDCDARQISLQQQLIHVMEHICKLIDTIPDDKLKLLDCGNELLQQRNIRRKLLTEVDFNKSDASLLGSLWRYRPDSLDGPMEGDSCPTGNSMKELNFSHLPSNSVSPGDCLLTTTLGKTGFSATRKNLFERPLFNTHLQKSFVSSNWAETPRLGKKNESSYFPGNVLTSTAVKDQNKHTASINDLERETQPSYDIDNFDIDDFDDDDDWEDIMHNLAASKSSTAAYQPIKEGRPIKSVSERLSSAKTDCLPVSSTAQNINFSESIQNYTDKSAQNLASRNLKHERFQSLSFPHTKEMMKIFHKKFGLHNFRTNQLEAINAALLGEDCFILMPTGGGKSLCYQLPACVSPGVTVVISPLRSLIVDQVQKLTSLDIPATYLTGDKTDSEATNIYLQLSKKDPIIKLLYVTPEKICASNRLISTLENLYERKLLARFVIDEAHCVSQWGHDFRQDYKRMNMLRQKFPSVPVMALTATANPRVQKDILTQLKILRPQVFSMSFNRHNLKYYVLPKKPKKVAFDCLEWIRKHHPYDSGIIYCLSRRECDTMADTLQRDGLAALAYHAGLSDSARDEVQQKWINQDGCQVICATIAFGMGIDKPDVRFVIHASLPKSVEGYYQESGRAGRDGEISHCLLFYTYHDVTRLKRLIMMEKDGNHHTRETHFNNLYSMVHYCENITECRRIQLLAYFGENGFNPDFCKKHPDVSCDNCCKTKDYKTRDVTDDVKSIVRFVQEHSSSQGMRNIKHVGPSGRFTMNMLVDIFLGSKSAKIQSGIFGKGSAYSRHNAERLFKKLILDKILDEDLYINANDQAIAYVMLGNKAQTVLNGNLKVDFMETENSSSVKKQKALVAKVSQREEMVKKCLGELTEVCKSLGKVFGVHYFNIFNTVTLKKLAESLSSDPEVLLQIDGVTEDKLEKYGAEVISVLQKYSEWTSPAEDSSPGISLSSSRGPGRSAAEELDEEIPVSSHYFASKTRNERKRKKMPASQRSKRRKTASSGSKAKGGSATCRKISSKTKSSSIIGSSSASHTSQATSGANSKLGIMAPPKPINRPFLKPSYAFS
# [2] = Cytotoxicity against human NCM460 cells assessed as inhibition of cell growth measured after 48 hrs by MTT assay; type: toxicity, cell-based
# [3] = Disruption of BLM/5'-biotin-labeled duplex forked-DNA interaction incubated for 30 mins by ELISA assay
# RKO [4] = assay: Cytotoxicity against human RKO cells assessed as inhibition of cell growth measured after 48 hrs by MTT assay; type: functional, cell-based
# [5] = target: T1, RecQ-like DNA helicase BLM; assay: Displacement of thiazole orange from His-tagged BLM (unknown origin) expressed in Escherichia coli BL21 (DE3) assessed as decrease in fluorescence intensity at 10 uM by fluorescence based analysis
# HCT-116 [6] = assay: Cytotoxicity against human HCT-116 cells assessed as inhibition of cell growth measured after 48 hrs by MTT assay; type: functional, cell-based; details: HCT-116, 48 h
# SW480 [7] = assay: Cytotoxicity against human SW480 cells assessed as inhibition of cell growth measured after 48 hrs by MTT assay; type: functional, cell-based; details: SW480, 48 h
# [8] = target: T1, RecQ-like DNA helicase BLM; assay: Inhibition of His-tagged BLM (unknown origin) expressed in Escherichia coli BL21 (DE3) using 5'-biotin-labeled duplex forked-DNA as substrate incubated for 10 mins followed by substrate addition measured after 30 mins in presence of ATP by electrophoretic mobility shift assay
# [9] = target: T1, RecQ-like DNA helicase BLM; assay: Displacement of thiazole orange from His-tagged BLM (unknown origin) expressed in Escherichia coli BL21 (DE3) assessed as decrease in fluorescence intensity by fluorescence based analysis
# HCT-116 [10] = assay: Antiproliferative activity against wild type human HCT-116 cells assessed as inhibition of cell growth incubated for 48 hrs by propidium iodide staining based high-content imaging analysis; type: functional; details: HCT-116, 48 h
# SW480 [11] = assay: Induction of DNA damage in human SW480 cells assessed as increase in gamma-H2AX level at above 0.3 uM incubated for 48 hrs by Western blotting analysis; type: functional, cell-based
# RKO [12] = assay: Induction of DNA damage in human RKO cells at 3 uM incubated for 48 hrs by DAPI staining based laser scanning confocal microscopic analysis; type: functional, cell-based
# HCT-116 [13] = assay: Inhibition of cell invasion in human HCT-116 cells incubated for 48 hrs by crystal violet staining based transwell assay; type: functional; details: HCT-116, 48 h
# HCT-116 [14] = assay: Induction of DNA damage in human HCT-116 cells assessed as increase in gamma-H2AX level at above 0.3 uM incubated for 48 hrs by Western blotting analysis; type: functional, cell-based
# SW480 [15] = assay: Induction of apoptosis in human SW480 cells assessed as apoptotic cells at 1 uM measured after 48 hrs by Annexin V-FITC/PI staining based flow cytometry (reference value: 16%); type: functional
# HCT-116 [16] = assay: Induction of cell cycle arrest in human HCT-116 cells assessed as accumulation of cells at G2/M phase at 4 uM measured after 48 hrs by propidium iodide staining based high-content screening method; type: functional
# SW480 [17] = assay: Induction of DNA damage in human SW480 cells at 3 uM incubated for 48 hrs by DAPI staining based laser scanning confocal microscopic analysis; type: functional, cell-based
# [18] = target: T1, RecQ-like DNA helicase BLM; assay: Inhibition of BLM in human HCT-116 cells co-transfected with DR-GFP and I-SceI plasmid assessed as decease in recruitment of BLM to DSB site at 1 to 2 uM incubated for 48 hrs by qPCR analysis; type: cell-based; details: dose 1-2 µM
# RKO [19] = assay: Inhibition of colony formation in human RKO cells incubated for 10 days by crystal violet staining based assay; type: functional, cell-based; details: 240 h
# HCT-116 [20] = assay: Inhibition of colony formation in human HCT-116 cells incubated for 10 days by crystal violet staining based assay; type: functional, cell-based; details: HCT-116, 240 h
# HCT-116 [21] = assay: Induction of apoptosis in human HCT-116 cells assessed as apoptotic cells at 1 uM measured after 48 hrs by Annexin V-FITC/PI staining based flow cytometry (reference value: 14%); type: functional
# HCT-116 [22] = assay: Induction of cell cycle arrest in human HCT-116 cells assessed as accumulation of cells at S phase at 4 uM measured after 48 hrs by propidium iodide staining based high-content screening method; type: functional
# SW480 [23] = assay: Inhibition of colony formation in human SW480 cells incubated for 10 days by crystal violet staining based assay; type: functional, cell-based; details: SW480, 240 h
# SW480 [24] = assay: Induction of cell cycle arrest in human SW480 cells assessed as accumulation of cells at G2/M phase at 4 uM measured after 48 hrs by propidium iodide staining based high-content screening method; type: functional
# HCT-116 [25] = assay: Induction of DNA damage in human HCT-116 cells at 3 uM incubated for 48 hrs by DAPI staining based laser scanning confocal microscopic analysis; type: functional, cell-based
# RKO [26] = assay: Induction of cell cycle arrest in human RKO cells assessed as accumulation of cells at G2/M phase at 4 uM measured after 48 hrs by propidium iodide staining based high-content screening method; type: functional
# SW480 [27] = assay: Induction of cell cycle arrest in human SW480 cells assessed as accumulation of cells at S phase at 4 uM measured after 48 hrs by propidium iodide staining based high-content screening method; type: functional
# RKO [28] = assay: Induction of DNA damage in human RKO cells assessed as increase in gamma-H2AX level at above 0.3 uM incubated for 48 hrs by Western blotting analysis; type: functional, cell-based
# [29] = target: T1, RecQ-like DNA helicase BLM; assay: Inhibition of BLM in human HCT-116 cells co-transfected with I-SceI assessed as effect on HRR level by measuring GFP expression at 1 to 3 uM incubated for 48 hrs by propidium iodide staining based high-content imaging analysis; type: cell-based; details: dose 1-3 µM
structure (smiles),measurement,setting,value
CCN(CC)CCCNc1cc2nc(/C=C/c3ccc(C(C)C)cc3)n(Cc3cccc(Br)c3)c(=O)c2cc1F,IC50,[1],> 32 µM
same,IC50 at 48 h,[2],15.3 µM
same,IC50,[3],9.9 µM
same,IC50,RKO [4],5.7 µM
same,Activity,[5],inactive
same,IC50,HCT-116 [6],2.9 µM
same,IC50,SW480 [7],1.9 µM
same,IC50,[8],2.3 µM
CCN(CC)CCCNc1cc2nc(/C=C/c3ccc(C(C)C)cc3)n(CCc3ccccc3)c(=O)c2cc1F,IC50,[9],> 10 µM
same,IC50,[8],4 µM
CCN(CC)CCCNc1cc2nc(/C=C/c3ccc(C(C)C)cc3)n(CCCN3CCOCC3)c(=O)c2cc1F,IC50,[9],> 10 µM
same,IC50,[8],> 32 µM
CCN(CC)CCCNc1cc2nc(/C=C/c3ccc(C(C)C)cc3)n(CCOC(C)=O)c(=O)c2cc1F,IC50,[9],> 10 µM
same,IC50,[8],> 32 µM
CCN(CC)CCCNc1cc2nc(/C=C/c3ccc(C(C)C)cc3)n(Cc3ccc(OC)cc3)c(=O)c2cc1F,Activity,[5],inactive
same,IC50,[8],5 µM
CCN(CC)CCCNc1cc2nc(/C=C/c3ccc(C(C)C)cc3)n(Cc3ccccc3Br)c(=O)c2cc1F,Activity,[5],inactive
same,IC50,[8],2.9 µM
CCN(CC)CCCNc1cc2nc(/C=C/c3ccc(C(C)C)cc3)n(CCC(C)C)c(=O)c2cc1F,Activity,[5],inactive
same,IC50,[8],9.1 µM
CCN(CC)CCCNc1cc2nc(/C=C/c3ccc(C(C)C)cc3)n(CCCl)c(=O)c2cc1F,IC50,[1],> 32 µM
same,IC50 at 48 h,[2],15 µM
same,IC50,[3],7.3 µM
same,IC50,RKO [4],5.6 µM
same,IC50,[9],> 10 µM
same,IC50,HCT-116 [6],5.6 µM
same,IC50,SW480 [7],4.5 µM
same,IC50,[8],5.1 µM
CCN(CC)CCCNc1cc2nc(/C=C/c3ccc(C(C)C)cc3)n(Cc3ccccc3F)c(=O)c2cc1F,Activity,[5],inactive
same,IC50,[8],5.2 µM
CCCn1c(/C=C/c2ccc(C(C)C)cc2)nc2cc(NCCCN(CC)CC)c(F)cc2c1=O,IC50,[9],> 10 µM
same,IC50,[8],> 32 µM
CCCCCn1c(/C=C/c2ccc(C(C)C)cc2)nc2cc(NCCCN(CC)CC)c(F)cc2c1=O,Activity,[5],inactive
same,IC50,[8],3.7 µM
CCN(CC)CCCNc1cc2nc(/C=C/c3ccc(C(C)C)cc3)n(Cc3ccc(Br)cc3)c(=O)c2cc1F,IC50,HCT-116 [10],1.9 µM
same,Activity,SW480 [11],Active
same,Activity,RKO [12],Active
same,IC50,HCT-116 [13],1 µM
same,Activity,HCT-116 [14],Active
same,IC50,[1],> 32 µM
same,IC50 at 48 h,[2],15.6 µM
same,Activity,SW480 [15],68%
same,Activity,HCT-116 [16],20%
same,IC50,[3],2.3 µM
same,Activity,SW480 [17],Active
same,inhibition,[18],Active
same,IC50,RKO [19],0.7 µM
same,IC50,HCT-116 [20],0.6 µM
same,Activity,HCT-116 [21],35%
same,Activity,HCT-116 [22],54%
same,IC50,RKO [4],5.4 µM
same,Activity,[5],inactive
same,IC50,SW480 [23],0.6 µM
same,Activity,SW480 [24],19%
same,Activity,HCT-116 [25],Active
same,IC50,HCT-116 [6],2.8 µM
same,Activity,RKO [26],25%
same,Activity,SW480 [27],58%
same,Activity,RKO [28],Active
same,IC50,SW480 [7],2.2 µM
same,inhibition,[29],Active
same,IC50,[8],0.8 µM
CCN(CC)CCCNc1cc2nc(/C=C/c3ccc(C(C)C)cc3)n(Cc3ccccc3)c(=O)c2cc1F,IC50,[9],> 10 µM
same,IC50,[8],5.8 µM
CCN(CC)CCCNc1cc2nc(/C=C/c3ccc(C(C)C)cc3)n(CCCO)c(=O)c2cc1F,Activity,[5],inactive
same,IC50,[8],32 µM
CCN(CC)CCCNc1cc2nc(/C=C/c3ccc(C(C)C)cc3)n(CC3CCOCC3)c(=O)c2cc1F,Activity,[5],inactive
same,IC50,[8],> 32 µM
CCN(CC)CCCNc1cc2nc(/C=C/c3ccc(C(C)C)cc3)n(CCC#N)c(=O)c2cc1F,IC50,[9],> 10 µM
same,IC50,[8],> 32 µM
CCCCn1c(/C=C/c2ccc(C(C)C)cc2)nc2cc(NCCCN(CC)CC)c(F)cc2c1=O,Activity,[5],inactive
same,IC50,[8],4.8 µM
CCN(CC)CCCNc1cc2nc(/C=C/c3ccc(C(C)C)cc3)n(Cc3ccccc3Cl)c(=O)c2cc1F,Activity,[5],inactive
same,IC50,[8],9.7 µM
CCN(CC)CCCNc1cc2nc(/C=C/c3ccc(C(C)C)cc3)n(CC3CC3)c(=O)c2cc1F,Activity,[5],inactive
same,IC50,[8],8.3 µM
CCN(CC)CCCNc1cc2nc(/C=C/c3ccc(C(C)C)cc3)n(CCN(C)C)c(=O)c2cc1F,IC50,[1],> 32 µM
same,IC50 at 48 h,[2],> 25 µM
same,IC50,[3],4.5 µM
same,IC50,RKO [4],10.6 µM
same,IC50,[9],> 10 µM
same,IC50,HCT-116 [6],3 µM
same,IC50,SW480 [7],10.1 µM
same,IC50,[8],2.5 µM
CCN(CC)CCCNc1cc2nc(/C=C/c3ccc(C(C)C)cc3)n(CCCCl)c(=O)c2cc1F,IC50,[1],> 32 µM
same,IC50 at 48 h,[2],9.6 µM
same,IC50,[3],4.9 µM
same,IC50,RKO [4],12.3 µM
same,Activity,[5],inactive
same,IC50,HCT-116 [6],5.3 µM
same,IC50,SW480 [7],3.45 µM
same,IC50,[8],1.3 µM
CCN(CC)CCCNc1cc2nc(/C=C/c3ccc(C(C)C)cc3)n(CCCN(CC)CC)c(=O)c2cc1F,Activity,[5],inactive
same,IC50,[8],> 32 µM
C=C(C)Cn1c(/C=C/c2ccc(C(C)C)cc2)nc2cc(NCCCN(CC)CC)c(F)cc2c1=O,Activity,[5],inactive
same,IC50,[8],8 µM
CCN(CC)CCCNc1cc2nc(/C=C/c3ccc(C(C)C)cc3)n(CC#N)c(=O)c2cc1F,Activity,[5],inactive
same,IC50,[8],4.3 µM
CCN(CC)CCCNc1cc2nc(/C=C/c3ccc(C(C)C)cc3)n(Cc3ccccc3C(F)(F)F)c(=O)c2cc1F,Activity,[5],inactive
same,IC50,[8],5.3 µM
CCN(CC)CCCNc1cc2nc(/C=C/c3ccc(C(C)C)cc3)n(CCCOC(C)C)c(=O)c2cc1F,IC50,[9],> 10 µM
same,IC50,[8],5.2 µM
